For assay [1], the target named is T1, hTAS1R2 + hTAS1R3 L782A^6.55 (Homo sapiens, UniProt Q7RTX0+Q8TE23, L782A).
T1 construct: expressed in transfected cells; host or cells: HEK293T cells stably expressing G16Gust44
T1 sequence (Q8TE23 20-839): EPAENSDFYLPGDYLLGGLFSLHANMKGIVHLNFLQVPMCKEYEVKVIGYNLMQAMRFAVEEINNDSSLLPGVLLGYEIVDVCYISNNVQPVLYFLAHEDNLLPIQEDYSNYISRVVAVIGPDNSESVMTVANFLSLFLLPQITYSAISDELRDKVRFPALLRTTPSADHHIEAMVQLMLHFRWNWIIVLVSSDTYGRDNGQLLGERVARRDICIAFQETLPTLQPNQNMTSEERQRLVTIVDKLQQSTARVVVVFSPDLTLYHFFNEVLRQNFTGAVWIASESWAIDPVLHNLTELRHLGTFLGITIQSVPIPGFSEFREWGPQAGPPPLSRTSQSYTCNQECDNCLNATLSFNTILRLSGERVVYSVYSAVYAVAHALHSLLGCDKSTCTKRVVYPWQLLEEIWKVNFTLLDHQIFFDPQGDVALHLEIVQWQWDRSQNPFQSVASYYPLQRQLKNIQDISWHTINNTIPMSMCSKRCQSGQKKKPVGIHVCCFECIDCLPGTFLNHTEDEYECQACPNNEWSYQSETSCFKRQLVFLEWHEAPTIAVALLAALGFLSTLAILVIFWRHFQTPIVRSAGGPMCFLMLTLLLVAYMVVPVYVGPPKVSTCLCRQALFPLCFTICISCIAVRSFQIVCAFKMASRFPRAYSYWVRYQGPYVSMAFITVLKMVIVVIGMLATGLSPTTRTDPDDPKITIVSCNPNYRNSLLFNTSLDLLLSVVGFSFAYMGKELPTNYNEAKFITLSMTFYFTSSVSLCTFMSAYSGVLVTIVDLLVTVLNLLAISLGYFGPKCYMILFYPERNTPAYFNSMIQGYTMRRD
T1 sequence (Q7RTX0 21-852 L782A): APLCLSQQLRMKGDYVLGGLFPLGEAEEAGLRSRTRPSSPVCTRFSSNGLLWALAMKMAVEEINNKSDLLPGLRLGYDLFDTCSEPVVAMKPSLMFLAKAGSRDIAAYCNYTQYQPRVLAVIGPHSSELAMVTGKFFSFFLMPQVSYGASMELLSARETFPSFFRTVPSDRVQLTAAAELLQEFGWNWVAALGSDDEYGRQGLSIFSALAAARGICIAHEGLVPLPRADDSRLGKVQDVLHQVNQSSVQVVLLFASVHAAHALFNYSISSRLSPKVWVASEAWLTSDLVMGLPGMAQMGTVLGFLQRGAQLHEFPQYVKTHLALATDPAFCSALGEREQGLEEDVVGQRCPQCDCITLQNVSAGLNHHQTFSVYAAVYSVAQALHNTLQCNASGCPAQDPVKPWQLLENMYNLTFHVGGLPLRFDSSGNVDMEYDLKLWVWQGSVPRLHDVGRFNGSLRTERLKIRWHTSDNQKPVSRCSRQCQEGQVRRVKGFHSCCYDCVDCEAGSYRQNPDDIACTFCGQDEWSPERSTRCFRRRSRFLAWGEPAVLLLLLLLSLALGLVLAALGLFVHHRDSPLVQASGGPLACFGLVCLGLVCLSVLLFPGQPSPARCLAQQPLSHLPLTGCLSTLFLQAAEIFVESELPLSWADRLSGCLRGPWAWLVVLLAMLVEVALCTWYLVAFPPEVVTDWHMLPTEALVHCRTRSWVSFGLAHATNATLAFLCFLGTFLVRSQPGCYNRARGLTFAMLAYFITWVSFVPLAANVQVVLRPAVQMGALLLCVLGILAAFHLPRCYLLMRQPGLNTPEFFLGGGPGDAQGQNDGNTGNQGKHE
Description: Calcium response (FLIPR), hTAS1R3 mutant coexpressed with hTAS1R2. Format: cell-based. As to conditions: variant L782A^6.55; for EC50: (>) EC50 not calculable because saturation is not reached; for Emax: read-out: maximal signal (% of wt). A digest of the protocol:
(§1)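 Read-out: FLIPR calcium signal as ΔF/F = (F-F0)/F0, corrected for mock-transfected cells. Cells were HEK293T stably carrying G16Gust44, transiently transfected with HSV-tagged receptor cDNAs and dye-loaded with Fluo4-AM 24 h post transfection.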

Assay [2] concerns the target T2, hTAS1R2 + hTAS1R3 V621I^2.58 (Homo sapiens, UniProt Q7RTX0+Q8TE23, V621I).
T2 construct: expressed in transfected cells; host or cells: HEK293T cells stably expressing G16Gust44
T2 sequence (Q8TE23 20-839): T1 sequence (Q8TE23 20-839)
T2 sequence (Q7RTX0 21-852 V621I): T1 sequence (Q7RTX0 21-852 L782A) with V601I, A762L
The description is as above. Format: cell-based. As to conditions: variant V621I^2.58; for EC50: (>) EC50 not calculable because saturation is not reached; for Emax: read-out: maximal signal (% of wt). A digest of the protocol: as §1

Residue numbers refer to the chain shown, from its start. Where a SMILES comes first, the peptide text is derived from it. Bounds are passed on as bounds.

Usually EC50 stands for the midpoint of the concentration-response curve.

Regarding `COc1ccc(CCC(=O)c2c(O)cc(O[C@@H]3O[C@H](CO)[C@@H](O)[C@H](O)[C@H]3O[C@@H]3O[C@@H](C)[C@H](O)[C@@H](O)[C@H]3O)cc2O)cc1O` [NHDC, neohesperidin dihydrochalcone], in assay [1], the EC50 is > 3000 µM and the Emax stood at 50 ± 11%. Besides, in assay [2], the EC50 is > 1000 µM and the Emax was 60 ± 14%.

For the compound `COC(=O)[C@H](Cc1ccccc1)NC(=O)[C@@H](N)CC(=O)O` [aspartame] (HELM PEPTIDE1{D.F.[CO[*:1]]}$$$$V2.0), in assay [1], the EC50 is 1700 ± 300 µM and the Emax was found to be 95 ± 90%. Also, in assay [2], the EC50 is 1900 ± 400 µM and the Emax came out at 61 ± 1%.

The values are drawn from paper PMC2099433, “The binding site for neohesperidin dihydrochalcone at the human sweet taste receptor” (BMC Structural Biology, 2007).
